Source: ChEMBL document CHEMBL3885881, “DrugMatrix”

Species: Rattus norvegicus
Assay: DrugMatrix - Regimen: Daily Repeat
Type: toxicity, organism-based, Sprague-Dawley
Parameters: regimen Daily Repeat, gender Male, age 6-8 weeks
Conditions: in vivo, po, route oral GAVAGE, vehicle 100 % WATER; for ABSOLUTE BASOPHIL / ABSOLUTE EOSINOPHIL / ABSOLUTE LYMPHOCYTE / ABSOLUTE MONOCYTE / ABSOLUTE SEGMENTED NEUTROPHIL / BASOPHIL / EOSINOPHIL / ERYTHROCYTE COUNT / HEMATOCRIT / HEMOGLOBIN / LEUKOCYTE COUNT / LYMPHOCYTE / MEAN CORPUSCULAR HEMOGLOBIN / MEAN CORPUSCULAR HEMOGLOBIN CONCENTRATION / MEAN CORPUSCULAR VOLUME / MONOCYTE / NEUTROPHIL / NUCLEATED RED BLOOD CELLS / PLATELET COUNT: tissue Blood; for ALANINE AMINOTRANSFERASE / ALBUMIN / ALKALINE PHOSPHATASE / ASPARTATE AMINOTRANSFERASE / BLOOD UREA NITROGEN / CARBON DIOXIDE / CHLORIDE / CHOLESTEROL / CREATINE PHOSPHOKINASE / CREATININE / GLUCOSE / LACTATE DEHYDROGENASE / LIPASE / PHOSPHORUS / POTASSIUM / SODIUM / TOTAL BILIRUBIN / TOTAL PROTEIN / URIC ACID: tissue Plasma
[1] = 15 mg/kg, 120 h, dose level Low, time 5 day
[2] = 79 mg/kg, 72 h, dose level High, time 3 day
[3] = 79 mg/kg, 120 h, dose level High, time 5 day

NNC(=O)c1ccncc1 [ISONIAZID]
ABSOLUTE BASOPHIL [1]: 0 CELLS/uL
ABSOLUTE EOSINOPHIL [1]: 0 CELLS/uL
ABSOLUTE LYMPHOCYTE [1]: 13245.33 CELLS/uL
ABSOLUTE MONOCYTE [1]: 507 CELLS/uL
ABSOLUTE SEGMENTED NEUTROPHIL [1]: 1614.33 CELLS/uL
BASOPHIL [1]: 0%
EOSINOPHIL [1]: 0%
ERYTHROCYTE COUNT [1]: 5.42 x10E6/uL
HEMATOCRIT [1]: 33.8%
HEMOGLOBIN [1]: 12.8 G/DL
LEUKOCYTE COUNT [1]: 15.37 x10E3/uL
LYMPHOCYTE [1]: 85%
MEAN CORPUSCULAR HEMOGLOBIN [1]: 23.67 pg
MEAN CORPUSCULAR HEMOGLOBIN CONCENTRATION [1]: 37.9 G/DL
MEAN CORPUSCULAR VOLUME [1]: 62.47 fL
MONOCYTE [1]: 3.33%
NEUTROPHIL [1]: 11.67%
NUCLEATED RED BLOOD CELLS [1]: 0 /100WBC
PLATELET COUNT [1]: 1239.67 x10E3/uL
ALANINE AMINOTRANSFERASE [1]: 47 u/L
ALBUMIN [1]: 4.33 G/DL
ALKALINE PHOSPHATASE [1]: 384.67 u/L
ASPARTATE AMINOTRANSFERASE [1]: 85 u/L
BLOOD UREA NITROGEN [1]: 16.67 mg/dL
CARBON DIOXIDE [1]: 23.67 mmol/L
CHLORIDE [1]: 102.67 MEQ/L
CHOLESTEROL [1]: 76 mg/dL
CREATINE PHOSPHOKINASE [1]: 246.67 u/L
CREATININE [1]: 0.47 mg/dL
GLUCOSE [1]: 188.33 mg/dL
LACTATE DEHYDROGENASE [1]: 93.67 u/L
LIPASE [1]: 11 u/L
PHOSPHORUS [1]: 11.47 mg/dL
POTASSIUM [1]: 5.97 MEQ/L
SODIUM [1]: 146 MEQ/L
TOTAL BILIRUBIN [1]: 0.23 mg/dL
TOTAL PROTEIN [1]: 6.3 G/DL
URIC ACID [1]: 2.17 mg/dL
ABSOLUTE BASOPHIL [2]: 0 CELLS/uL
ABSOLUTE EOSINOPHIL [2]: 46.33 CELLS/uL
ABSOLUTE LYMPHOCYTE [2]: 10642.67 CELLS/uL
ABSOLUTE MONOCYTE [2]: 65.33 CELLS/uL
ABSOLUTE SEGMENTED NEUTROPHIL [2]: 779 CELLS/uL
BASOPHIL [2]: 0%
EOSINOPHIL [2]: 0.33%
ERYTHROCYTE COUNT [2]: 6 x10E6/uL
HEMATOCRIT [2]: 38.67%
HEMOGLOBIN [2]: 14.03 G/DL
LEUKOCYTE COUNT [2]: 11.53 x10E3/uL
LYMPHOCYTE [2]: 91.67%
MEAN CORPUSCULAR HEMOGLOBIN [2]: 23.4 pg
MEAN CORPUSCULAR HEMOGLOBIN CONCENTRATION [2]: 36.3 G/DL
MEAN CORPUSCULAR VOLUME [2]: 64.47 fL
MONOCYTE [2]: 0.67%
NEUTROPHIL [2]: 7.33%
NUCLEATED RED BLOOD CELLS [2]: 0 /100WBC
PLATELET COUNT [2]: 1065.67 x10E3/uL
ALANINE AMINOTRANSFERASE [2]: 19 u/L
ALBUMIN [2]: 4.9 G/DL
ALKALINE PHOSPHATASE [2]: 349 u/L
ASPARTATE AMINOTRANSFERASE [2]: 74.33 u/L
BLOOD UREA NITROGEN [2]: 22.67 mg/dL
CARBON DIOXIDE [2]: 25.67 mmol/L
CHLORIDE [2]: 101.67 MEQ/L
CHOLESTEROL [2]: 80 mg/dL
CREATINE PHOSPHOKINASE [2]: 463.67 u/L
CREATININE [2]: 0.29 mg/dL
GLUCOSE [2]: 227.33 mg/dL
LACTATE DEHYDROGENASE [2]: 268 u/L
LIPASE [2]: 9.67 u/L
PHOSPHORUS [2]: 14.17 mg/dL
POTASSIUM [2]: 7.15 MEQ/L
SODIUM [2]: 146.23 MEQ/L
TOTAL BILIRUBIN [2]: 0.13 mg/dL
TOTAL PROTEIN [2]: 6.77 G/DL
URIC ACID [2]: 3.97 mg/dL
ABSOLUTE BASOPHIL [3]: 0 CELLS/uL
ABSOLUTE EOSINOPHIL [3]: 53 CELLS/uL
ABSOLUTE LYMPHOCYTE [3]: 13139.33 CELLS/uL
ABSOLUTE MONOCYTE [3]: 527.33 CELLS/uL
ABSOLUTE SEGMENTED NEUTROPHIL [3]: 647 CELLS/uL
BASOPHIL [3]: 0%
EOSINOPHIL [3]: 0.33%
ERYTHROCYTE COUNT [3]: 5.87 x10E6/uL
HEMATOCRIT [3]: 36.03%
HEMOGLOBIN [3]: 13.4 G/DL
LEUKOCYTE COUNT [3]: 14.37 x10E3/uL
LYMPHOCYTE [3]: 91.67%
MEAN CORPUSCULAR HEMOGLOBIN [3]: 22.8 pg
MEAN CORPUSCULAR HEMOGLOBIN CONCENTRATION [3]: 37.17 G/DL
MEAN CORPUSCULAR VOLUME [3]: 61.33 fL
MONOCYTE [3]: 3.67%
NEUTROPHIL [3]: 4.33%
NUCLEATED RED BLOOD CELLS [3]: 0.33 /100WBC
PLATELET COUNT [3]: 1389.67 x10E3/uL
ALANINE AMINOTRANSFERASE [3]: 28 u/L
ALBUMIN [3]: 4.37 G/DL
ALKALINE PHOSPHATASE [3]: 359.67 u/L
ASPARTATE AMINOTRANSFERASE [3]: 83.67 u/L
BLOOD UREA NITROGEN [3]: 17 mg/dL
CARBON DIOXIDE [3]: 24.67 mmol/L
CHLORIDE [3]: 102.33 MEQ/L
CHOLESTEROL [3]: 63.67 mg/dL
CREATINE PHOSPHOKINASE [3]: 505 u/L
CREATININE [3]: 0.21 mg/dL
GLUCOSE [3]: 173 mg/dL
LACTATE DEHYDROGENASE [3]: 177.33 u/L
LIPASE [3]: 10.33 u/L
PHOSPHORUS [3]: 12.07 mg/dL
POTASSIUM [3]: 6.62 MEQ/L
SODIUM [3]: 143.8 MEQ/L
TOTAL BILIRUBIN [3]: 0.17 mg/dL
TOTAL PROTEIN [3]: 6.3 G/DL
URIC ACID [3]: 2.17 mg/dL
